The values below come from US20250152580A1, “METHODS FOR TREATING IMMUNE DISEASES” (Ascentage Pharma (Suzhou) co., Ltd., priority 2022, published 2025).

For experiment [1], the system named is OXA induced atopic dermatitis model. Put plainly: OXA induced atopic dermatitis (AD) model in C57BL/6 mice. In kind it is in vivo. The note with it: Cpd. 4 10, 30 and 100 mg/kg po qd day 7-25; dexamethasone 25 μL of 0.09% (w/v) topical qd; compared with Vehicle. The text has this:
Atopic dermatitis (AD) is a chronic skin disease that presents with itching, erythema and squamous lesions. Haptenating agent oxazolone (OXA) sensitization and continuous challenge establish AD like skin inflammation.
Female C57BL/6 mice (6 weeks old) were obtained from Biocytogen Laboratory Animal Co. Ltd. Animals were housed and handled in a temperature-controlled environment with a 12-h light/12-h dark cycle. A total of 48 mice were assigned to 6 groups by randomization based on body weight.
To induce AD-like lesion, all right ears of mice except the G1 sham control group were applied with oxazolone (OXA). Briefly, skin inflammation was induced by topical administration with 25 μL of 0.8% OXA dissolved in acetone on day 0, and repeated 25 μl of 0.4% OXA three times a week from day 7 to 25. G1 sham control group was treated same volume of vehicles. Therapeutic groups as 10 mg/kg, 30 mg/kg and 100 mg/kg Cpd. 4 (po, qd, day 7 to day 25) or 25 μL of 0.09% (w/v) dexamethasone (topical, qd, day 7 to day 25) were applied to the mice. The protocols and procedures involving the care and use of animals were approved by the Institutional Animal Care and Use Committee (IACUC) at Biocytogen (Beijing, China).
Ear thickness of mice was measured before application of Oxa and every other day from day 7 to day 26. […]

In experiment [2] the test system is IL-23 induced psoriasis model. Put plainly: IL-23 induced psoriasis model in C57BL/6 mice. The experiment is classed as in vivo. The note with it: Cpd. 4 30 mg/kg po qd day 1-14, compared with Vehicle (0.44 mm day 14). The text has this: IL-23 stimulates and promotes differentiation of Th17 cells. IL-23 is a heterodimeric cytokine with two subunits. It drives the Th17 response by its binding and signaling through its receptor subunits. When the IL-23R is activated, it promotes the development of Th17 cells and the resulting production of cytokines such as IL-17A, IL-17F, and IL-22, all which are involved in mediating psoriasiform changes.
C57BL/6 mice (7-8 weeks old) were obtained from Vital River Laboratory Animal Technology Co., Ltd. Animals were housed and handled in a temperature-controlled environment with a 12-h light/12-h dark cycle. A total of 40 mice were assigned to 4 groups by randomization based on body weight.
The first day of IL-23 injection is considered as Day 1. Intradermal injection of 20 μL PBS containing 500 ng recombinant mouse IL-23 into the right ear of anesthetized mice using a 30-gauge needle every other day for 14 days (Day 1, Day 3, Day 5, Day 7, Day 9, Day 11, Day 13), 7 times in total. The G1 normal control group intradermal injected with 20 μL PBS.
Mice in Group 1 and Group 2 were treated with vehicle for 14 days (po, qd, from day 1 to day 14). Mice in Group 3 were treated with 30 mg/kg Cpd. 4 for 14 days (po, qd, from day 1 to day 14). […]
Ear thickness of mice was measured in Day 1, 3, 5, 7, 9, 11, 13 and Day 14. […]

The structures appear in SMILES notation. Entries after “also recorded” stand apart in the source; their conditions may differ.

As to `O=C(NS(=O)(=O)c1ccc(NC[C@H]2COCCO2)c([N+](=O)[O-])c1)c1ccc(N2CCN(CC3=C(c4ccc(Cl)cc4)CC4(CCC4)CC3)CC2)cc1Oc1cnc2[nH]ccc2c1` [Cpd. 4, (S)-N-((4-(((1,4-dioxan-2-yl)methyl)amino)-3-nitrophenyl)sulfonyl)-2-((1H-pyrrolo[2,3-b]pyridin-5-yl)oxy)-4-(4-((6-(4-chlorophenyl)spiro[3.5]non-6-en-7-yl)methyl)piperazin-1-yl)benzamide], the ear thickness entry in experiment [1] and in experiment [2] was “significantly reducing the ear thickness; also recorded: significantly reduced” in each case.
